From patent US20140023611A1 (priority 2010, published 2014)

target: T1, rat NaP2b (SLC34A2) (Rattus norvegicus, UniProt Q9JJ09); test: Inhibition of NaP2b-mediated Pi (33P) uptake in transfected HEK293 cells, rat NaP2b; format: cell-based; settings: 33P Pi uptake, 0.1 mM phosphate, value given as pIC50 range
T1 construct: host or cells: HEK293
T1 sequence (Q9JJ09 1-695): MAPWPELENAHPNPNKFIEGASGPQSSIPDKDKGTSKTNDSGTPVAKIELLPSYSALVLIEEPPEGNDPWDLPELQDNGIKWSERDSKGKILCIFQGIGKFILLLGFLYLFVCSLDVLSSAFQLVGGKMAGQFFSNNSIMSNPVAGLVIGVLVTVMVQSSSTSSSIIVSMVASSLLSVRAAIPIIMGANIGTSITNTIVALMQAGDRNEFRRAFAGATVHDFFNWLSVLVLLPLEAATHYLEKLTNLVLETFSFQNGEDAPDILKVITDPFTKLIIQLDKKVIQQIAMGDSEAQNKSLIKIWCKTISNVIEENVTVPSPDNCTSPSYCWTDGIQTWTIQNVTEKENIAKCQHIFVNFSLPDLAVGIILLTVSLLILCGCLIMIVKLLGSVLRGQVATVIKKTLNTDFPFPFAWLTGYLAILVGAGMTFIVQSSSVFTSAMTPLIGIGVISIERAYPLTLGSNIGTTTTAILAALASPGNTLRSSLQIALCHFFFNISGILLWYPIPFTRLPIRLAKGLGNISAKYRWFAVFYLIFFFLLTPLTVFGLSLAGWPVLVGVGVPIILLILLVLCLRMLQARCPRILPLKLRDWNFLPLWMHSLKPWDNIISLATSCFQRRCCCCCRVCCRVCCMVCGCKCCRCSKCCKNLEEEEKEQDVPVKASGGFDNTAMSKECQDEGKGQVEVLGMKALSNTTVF
In short: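 The cells transiently expressed NaP2b after Lipofectamine transfection. Each compound was run in duplicate over twelve concentrations, 0.1 nM–30 uM.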

`O=C(NCc1cccc(C(F)(F)F)c1)c1ccnc(-c2cc(N3CCCCC3)ccc2NC(=O)c2cccc(CN3CCC(CO)CC3)c2)c1` [Example 8.27] and `O=C(O)CC1CCN(C(=O)c2cccc(C(=O)Nc3ccc(N4CCCCC4)cc3-c3cc(C(=O)NCc4cccc(C(F)(F)F)c4)ccn3)c2)CC1` [Example 4.31, 2-(1-(3-(4-(Piperidin-1-yl)-2-(4-(3-(trifluoromethyl)benzylcarbamoyl)pyridin-2-yl)phenylcarbamoyl)benzoyl)piperidin-4-yl)acetic acid] fall in the same range of IC50: 10 to 31.6 µM for the first, 10 to 31.6 µM for the second.

`Cc1cccc(CN(C)C(=O)c2ccnc(-c3cc(N4CCCCC4)ccc3NC(=O)c3cccc(CSCCC(=O)O)c3)c2)c1` [Example 1.38] and `Cc1cccc(CNc2cc(-c3cc(N4CCCCC4)ccc3NC(=O)c3cccc(CSCCC(=O)O)c3)ncn2)c1` [Example 3.2, 3-((3-((4-(Piperidin-1-yl)-2-(6-((3-methylbenzyl)amino)pyrimidin-4-yl)phenyl)carbamoyl)benzyl)thio)propanoic acid] fall in the same range of IC50: 10 to 31.6 µM for the first, 10 to 31.6 µM for the second.

`O=C(NCc1cccc(C(F)(F)F)c1)c1ccnc(-c2cc(N3CCCCC3)ccc2NC(=O)c2cccc(C(=O)N3CCC(N4CCOCC4)CC3)c2)c1` [Example 4.23] and `COCCNC(=O)N1CCN(CCN(C)Cc2cccc(C(=O)Nc3ccc(N4CCCCC4)cc3-c3cc(C(=O)NCc4cccc(C(F)(F)F)c4)ccn3)c2)CC1` [Example 208, N-(2-methoxyethyl)-4-(2-(methyl(3-(4-(piperidin-1-yl)-2-(4-(3-(trifluoromethyl)benzylcarbamoyl)pyridin-2-yl)phenylcarbamoyl)benzyl)amino)ethyl)piperazine-1-carboxamide] fall in the same range of IC50: 10 to 31.6 µM for the first, 10 to 31.6 µM for the second.

`O=C(O)c1ccc(SCc2cccc(C(=O)Nc3ccc(N4CCCCC4)cc3-c3cc(C(=O)NCc4cccc(C(F)(F)F)c4)ccn3)c2)cc1` [Example 8.23] and `O=C(O)c1cccc(CSCc2cccc(C(=O)Nc3ccc(N4CCCCC4)cc3-c3cc(C(=O)NCc4cccc(C(F)(F)F)c4)ccn3)c2)c1` [Example 9.3, 3-(((3-((4-(Piperidin-1-yl)-2-(4-((3-(trifluoromethyl)benzyl)carbamoyl)pyridin-2-yl)phenyl)carbamoyl)benzyl)thio)methyl)benzoic acid] fall in the same range of IC50: 1 to 7.94 µM for the first, 1 to 7.94 µM for the second.

`O=C(O)CCSCc1cccc(C(=O)Nc2ccc(N3CCCCC3)cc2-c2cc(C(=O)NCc3cc(C(F)(F)F)ccc3F)ccn2)c1` [Example 1.30] and `O=C(O)CCSCc1cccc(C(=O)Nc2ccc(N3CCCCC3)cc2-c2cc(C(=O)NCc3ccccc3C(F)(F)F)ccn2)c1` [Example 1.48] fall in the same range of IC50: 1 to 7.94 µM for the first, 1 to 7.94 µM for the second.

First: COCCN(CCOC)CCN(C)C(=O)c1cccc(C(=O)Nc2ccc(N3CCCCC3)cc2-c2cc(C(=O)N[C@H]3CCCc4ccccc43)ccn2)c1 [Example 217, (S)—N1-(2-(bis(2-methoxyethyl)amino)ethyl)-N1-methyl-N3-(4-(piperidin-1-yl)-2-(4-(1,2,3,4-tetrahydronaphthalen-1-ylcarbamoyl)pyridin-2-yl)phenyl)isophthalamide]
Second: COCCN(CCOCCOCCOCCC(=O)O)CCN(C)C(=O)c1cccc(C(=O)Nc2ccc(N3CCCCC3)cc2-c2cc(C(=O)N[C@H]3CCCc4ccccc43)ccn2)c1 [Example 221, 5-{2-[N-methyl-1-(3-{[4-(piperidin-1-yl)-2-(4-{[(1S)-1,2,3,4-tetrahydronaphthalen-1-yl]carbamoyl}pyridin-2-yl)phenyl]carbamoyl}phenyl)formamido]ethyl}-2,8,11,14-tetraoxa-5-azaheptadecan-17-oic acid]
The IC50 of the first is lower: under 1 µM for the first, 10 to 31.6 µM for the second. The first is the more potent here.

First: O=C(O)CCSCc1cccc(C(=O)Nc2ccc(N3CCCCC3)cc2-c2cc(C(=O)NCc3ccc4c(c3)OCCCO4)ccn2)c1 [Example 1.22]
Second: O=C(O)CCSCc1cccc(C(=O)Nc2ccc(N3CCCCC3)cc2-c2cc(C(=O)NCc3cccc(CN4CCOCC4)c3)ccn2)c1 [Example 1.16]
The IC50 of the first is lower: 1 to 7.94 µM for the first, 10 to 31.6 µM for the second. The first is the more potent here.

`O=C(O)CCSCc1cccc(C(=O)Nc2ccc(N3CCCCC3)cc2-c2cc(OCc3cccc(C(F)(F)F)c3)ccn2)c1` [Example 98] and `O=C(O)CCSCc1cccc(C(=O)Nc2ccc(N3CCCCC3)cc2-c2cc(C(=O)c3cccc(C(F)(F)F)c3)ccn2)c1` [Example 5.2, 3-((3-((4-(piperidin-1-yl)-2-(4-(3-(trifluoromethyl)benzoyl)pyridin-2-yl)phenyl)carbamoyl)benzyl)thio)propanoic acid] fall in the same range of IC50: 10 to 31.6 µM for the first, 10 to 31.6 µM for the second.

Compared with `COCCNC(=O)c1cccc(SCc2cccc(C(=O)Nc3ccc(N4CCCCC4)cc3-c3cc(C(=O)NCc4cccc(C(F)(F)F)c4)ccn3)c2)c1` [Example 10.5], `CN(CCN1CCOCC1)C(=O)Cc1cccc(SCc2cccc(C(=O)Nc3ccc(N4CCCCC4)cc3-c3cc(C(=O)NCc4cccc(C(F)(F)F)c4)ccn3)c2)c1` [Example 136, 2-(2-(3-((3-(2-(methyl(2-morpholinoethyl)amino)-2-oxoethyl)phenylthio)methyl)benzamido)-5-(piperidin-1-yl)phenyl)-N-(3-(trifluoromethyl)benzyl)isonicotinamide] is lower in IC50: 10 to 31.6 µM for the first, 1 to 7.94 µM for the second. The second is the more potent here.

First: O=C(O)CCSCc1cccc(C(=O)Nc2ccc(N3CCCCC3)cc2-c2cc(C(=O)NCc3cccc(-n4cccn4)c3)ccn2)c1 [Example 1.21]
Second: O=C(O)CCSCc1cccc(C(=O)Nc2ccc(N3CCCCC3)cc2-c2cc(C(=O)NCc3cccc(-c4ccccc4)c3)ccn2)c1 [Example 1.42]
The IC50 of the first is higher: 10 to 31.6 µM for the first, 1 to 7.94 µM for the second.

Compared with `O=C(O)CCOCCOCCOCCOCCCc1cccc(C(=O)Nc2ccc(OC3CCCC3)cc2-c2cc(C(=O)N[C@H]3CCCc4ccccc43)ccn2)c1` [Example 347, (S)-16-(3-(4-(cyclopentyloxy)-2-(4-(1,2,3,4-tetrahydronaphthalen-1-ylcarbamoyl)pyridin-2-yl)phenylcarbamoyl)phenyl)-4,7,10,13-tetraoxahexadecan-1-oic acid], `CN(CCOCCOCCOCCC(=O)O)Cc1cccc(C(=O)Nc2ccc(N3CCCCC3)cc2-c2cc(C(=O)NCc3cccc(C(F)(F)F)c3)ccn2)c1` [Example 43, 2-Methyl-1-(3-((4-(piperidin-1-yl)-2-(4-((3-(trifluoromethyl)benzyl)carbamoyl)pyridin-2-yl)phenyl)carbamoyl)phenyl)-5,8,11-trioxa-2-azatetradecan-14-oic acid] is higher in IC50: under 1 µM for the first, 10 to 31.6 µM for the second.

`CCN(CC)c1ccc(NC(=O)c2cccc(CCCOCCOCCOCC[N+](CC)(CC)CC)c2)c(-c2cc(C(=O)NCc3cccc(C(F)(F)F)c3)ccn2)c1` [Example 330, 2-(2-(2-(3-(3-(4-(diethylamino)-2-(4-(3-(trifluoromethyl)benzylcarbamoyl)pyridin-2-yl)phenylcarbamoyl)phenyl)propoxy)ethoxy)ethoxy)-N,N,N-triethylethanaminium] and `CCN(CC)c1ccc(NC(=O)c2cccc(CCCOCCOCCOCCOCCC(=O)NCCOCCOCCOCCOCCOCCOCCOC)c2)c(-c2cc(C(=O)NCc3cccc(C(F)(F)F)c3)ccn2)c1` [Example 260, 2-(5-(diethylamino)-2-(3-(24-oxo-2,5,8,11,17,20,27,30,33,36-undecaoxa-23-azanonatriacontan-39-yl)benzamido)phenyl)-N-(3-(trifluoromethyl)benzyl)isonicotinamide] fall in the same range of IC50: 1 to 7.94 µM for the first, 1 to 7.94 µM for the second.

`O=C(O)CCSCc1cccc(C(=O)Nc2ccc(N3CCCCC3)cc2-c2cc(C(=O)Nc3cccc(C(F)(F)F)c3)ccn2)c1` [Example 84] and `O=C(NCc1cccc(C(F)(F)F)c1)c1ccnc(-c2cc(N3CCCCC3)ccc2NC(=O)c2cccc(CSc3ncc(C(=O)O)c(O)n3)c2)c1` [Example 8.14] fall in the same range of IC50: 1 to 7.94 µM for the first, 1 to 7.94 µM for the second.
